Experimental data taken from patent US20070270421A1, “Novel pyridine Derivative and Pyrimidine Derivative (1)” (priority 2004, published 2007).
pIC50: −log10 of the molar value.

Key:
[1] = system: Human gastric cancer cells (MKN-45) tumor; assay: Inhibitory activity against the tumor growth of human gastric cancer cells (MKN-45) transplanted in mice; type: in vivo, BALB/c (nu/nu) mice; settings: oral, twice every day, fifth day, tumor volume relative to control group
Experimental: Human gastric cancer cells (MNK-45) were suspended in HBSS (purchased from GIBCO BRL). The cell suspension (5×10^7 cells/ml) was transplanted under the right flank skin of seven-week-old female BALB/c (nu/nu) mice at a volume of 0.1 ml. When tumor volume of the site transplanted with MNK-45 cells grew to 100-200 mm^3, mice were grouped so that the groups might be equalized in average tumor volume. The test substance was suspended in 0.5% methylcellulose, a mixed solution of hydrochloric acid and glucose (0.1N hydrochloric acid:5% glucose=1:9) or a mixed solution of dimethyl sulfoxide-Tween-glucose (dimethyl sulfoxide:Tween 80:5% glucose (containing equimolar hydrochloric acid to the test substance)=7:13:80), were administered orally to the mice twice every day. The tumor volumes were determined at the fifth day after the initiation of the administration of the test substances. The major axis and the minor axis of tumor were measured by a caliper to calculate 1/2×(major axis×minor axis×minor axis) for the tumor volume. The experiment was conducted using 10 mice in the control group (solvent-administered group) and 5 mice in test substance-administered group. The ratio in tumor volume of the group for administrating the test substance relative to that of the control group was defined as a tumor proliferation rate (%).

[2] = system: Human umbilical vein endothelial cells (HUVECs); assay: Inhibitory activity against sandwich tube formation by vascular endothelial cells stimulated with hepatocyte growth factor; type: cell-based; settings: HUVEC in collagen gel, 30 ng/ml HGF, fourth day, total tube length, read-out: IC50 (concentration necessary to inhibit the tube formation by 50%)
Experimental: (§1) Human umbilical vein endothelial cells (HUVECs) were isolated according to the reported method (Shin Seikagaku Jikken Koza, “Cell culturing techniques”, p 197-202), and then cultured in a 5% CO2 incubator (37° C.) using EGM-2 medium (purchased from Clonetics) until the cells reached confluency.
To each well of a 24-well plate was added 0.4 ml of an ice-cold mixture of collagen:5×RPMI1640:reconstitution buffer (all purchased from Nitta Gelatin, Inc.) at 7:2:1, followed by incubating in a 5% CO2 incubator (37° C.) for 40 min to allow the solution to gel. Then, each well was supplied with 1 ml of the cell suspension of HUVEC (1-1.2×10^5 cells were used, though the cell number varied slightly depending on the lot of the HUVEC to be used) diluted with a serum free medium for endothelial cell culture (SFM, purchased from GIBCO RBL) supplemented with 10 ng/ml of EGF, followed by culturing in a 5% CO2 incubator (37° C.) overnight. […] The tube formed in the collagen gel of each well was stained with MTT, and then the tube image was loaded in a computer (Macintosh) to determine the total length of the tube by an image analysis software “Angiogenesis quantification software” (purchased from Kurabo). The ratio of the total length of a tube formed in a well supplied with the test substance relative to a tube formed in a well supplied with no test substance was expressed as a percentage. […]

[3] = system: Human umbilical vein endothelial cells (HUVECs); assay: Inhibitory activity against the growth of vascular endothelial cells stimulated with hepatocyte growth factor; type: cell-based; settings: HUVEC, HGF stimulation, third day, Cell Counting Kit-8, read-out: IC50 (concentration necessary to inhibit cell proliferation activity by 50%)
Experimental: as §1
HUVECs were suspended in a serum-free medium for endothelial cell culture (SFM, purchased from GIBCO RBL) containing 2% FBS. The cell suspension (2×10^4 cells/ml) was put in a cell culturing 96-well plate (purchased from NUNC, Production No. 167008) at 0.1 ml/well, and then cultured in a 5% CO2 incubator (37° C.) overnight. […] After the incubation, using a Plate Reader MTP-500 (Corona Electric), the absorbance of each well was determined at a measurement wavelength of 450 nm and a reference wavelength of 660 nm. While defining the absorbance of a well supplied with HGF and no test substance as 100% cell proliferation activity and the absorbance of the well supplied with no test substance and no HGF as 0% cell proliferation activity, the cell proliferation activity ratio (%) was calculated for each cell. […]

Structure (SMILES): O=C(Cc1ccc(F)cc1)NC(=S)Nc1ccc(Oc2ccnc(NC(=O)N3CCCC3)c2)c(F)c1 [Example 13, 4-(2-Fluoro-4-{3-[2-(4-fluorophenyl)acetyl]thioureido}phenoxy)-2-[(pyrrolidin-1-yl)carbonylamino]pyridine]
- Tumor proliferation rate (%) ([1]; Dose 10 mg/kg/time): 68%
- Tumor proliferation rate (%) ([1]; Dose 30 mg/kg/time): 47%
- Tumor proliferation rate (%) ([1]; Dose 100 mg/kg/time): 26%
- pIC50 [2]: 6.89
- pIC50 [3]: 7.14

Structure (SMILES): O=C(Cc1ccc(F)cc1)NC(=S)Nc1ccc(Oc2cc(NC(=O)N3CCCC3)ncn2)c(F)c1 [Example 3, Pyrrolidine-1-carboxylic acid [6-(2-fluoro-4-{3-[2-(4-fluorophenyl)acetyl]thioureido}phenoxy)pyrimidin-4-yl]amide]
- Tumor proliferation rate (%) ([1]; Dose 30 mg/kg/time): 69%
- Tumor proliferation rate (%) ([1]; Dose 100 mg/kg/time): 37%
- pIC50 [3]: 6.72
